Patent US11007176B2, “Use of actin depolymerizing agents for the treatment of anxiety disorders” (priority 2019, dated 2021)
Entries after “also recorded” stand apart in the source; their conditions may differ.

Test system: Atf3^−/− mice
Assay: Trace fear conditioning (contextual and tone freezing tests) after intracranial infusion of cytochalasin D
Assay type: in vivo
Experimental: The habituation session was performed similarly to the DFC. The mice were divided into three groups (WT: n=15; Atf3^+/−: n=10; Atf3^−/−: n=16) and placed in the conditioning chamber for 15 min per day for 3 days. On Day 4, they underwent three trace fear conditioning trials: a 20-s tone (6000 Hz, 85 dB; CS), followed by a 10-s time interval, and then a 1-s foot shock (2 mA; US). Twenty-four hours later, the mice were placed in the same conditioning chamber for 6 min with neither tone nor foot shock for contextual testing. One hour after the contextual test, the mice were placed in a novel chamber for a tone test, which was performed as follows: 1 min with neither tone nor foot shock followed by a 6-min tone (6000 Hz, 85 dB). Freezing behaviors were recorded and analyzed using the FreezeScan software, and the freezing percentage was calculated using the aforementioned formula.
At 14 weeks of age, mice (Atf3^+/−: n=5, Atf3^−/−: n=9) were anesthetized using a mixture of ketamine, xylazine, and saline (0.55 mL/25 g) in accordance with the regulations of the Lab Animal Center, Tzu Chi University, Taiwan. Mouse heads were restrained in stereotaxic apparatus to ensure movement restriction during surgery. […] After surgery, the mice were placed in their respective cages to recover for 4 days and were then tested for TFC. Habituation was performed as described in the trace fear conditioning protocol. Using a Hamilton syringe, the actin depolymerizing agent cytochalasin D (Sigma-Aldrich, MO, USA, catalogue No. C8273), dissolved in dimethyl sulfoxide at a concentration of 25 μg/μL, was infused at a rate of 0.5 μL/min for 1 min immediately after fear conditioning on Day 4. Twenty-four hours later, contextual and tone testing was performed as previously described. A few mice were unable to perform the tasks because of loss of mobility after surgery; the data for these mice are not included. Mice were transcardially perfused, and their brains were incubated in Golgi-Cox staining solution.

C=C1[C@@H](C)[C@H]2[C@H](Cc3ccccc3)NC(=O)[C@]23[C@H](OC(C)=O)/C=C/[C@@](C)(O)C(=O)[C@@H](C)C/C=C/[C@H]3[C@@H]1O [cytochalasin D]
Freezing percentage to context (Atf3^−/− mice, cytochalasin D 25 μg/μL in DMSO infused at 0.5 μL/min for 1 min immediately after trace fear conditioning, contextual test 24 h later, compared with Atf3^−/− mice treated with saline (FIG. 5G)): significantly lower | Freezing percentage to tone (Atf3^−/− mice, cytochalasin D 25 μg/μL in DMSO infused at 0.5 μL/min for 1 min immediately after trace fear conditioning, tone test 24 h later, compared with Atf3^−/− mice treated with saline (FIG. 5H)): significantly lower | Freezing behavior (fear phenotype) of Atf3^−/− mice (hippocampal / intracranial infusion of cytochalasin D, summary statement, context or tone test not specified): reversed the phenotype of Atf3^−/− mice; also recorded: reduced the freezing behavior of the Atf3^−/− mice to a wild-type mouse level
